The source of these data is PubChem BioAssay (NCI).

Molecules are shown by their SMILES.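 Cells were grown in 96-well plates and exposed to each compound for 48 hours at five concentrations; endpoints were interpolated linearly between bracketing concentrations, or set to the highest concentration if not reached. TGI denotes the concentration required for complete inhibition of growth.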

Experiment in all cases: inhibition of tumour cell growth, NCI panel, 48 h
The subject of assay [1] is HOP-18 NSCLC.
Assay [2] concerns HS 578T breast.
The test system of assay [3] is HT29 colon.
The test system of assay [4] is KM20L2 colon.
Assay [5] deals with M14 melanoma.
For assay [6], the system named is M19-MEL melanoma.
In assay [7] the test system is MCF7 breast.
In assay [8] the test system is MDA-MB-435.
Assay [9] deals with NCI-H522 lung.
The test system of assay [10] is NCI/ADR-RES ovarian.
Assay [11] deals with OVCAR-8 ovarian.
Assay [12] has as its system TK-10 renal.
For assay [13], the system named is UACC-257 melanoma.

In the case of `CCCCCCCCCCCC(=O)OC[C@@H](C[As](=O)(O)O)OC(=O)CCCCCCCCCCC`, the TGI in assay [1] was determined as 27.7 µM; in assay [2], 29.4 µM; in assay [3] it was 25.3 µM; in assay [4], 26.4 µM; in assay [5], 8.47 µM; in assay [6], 19.4 µM. Further, the TGI in assay [7] came out at 9.24 µM; in assay [8], 15 µM; in assay [9] it was 6.5 µM; in [10], 36.6 µM; in [11] it was 23.6 µM; in assay [12], 25 µM. In assay [13], the TGI was found to be 31.7 µM.
Consider `CC(=O)OC(CCC1(C)OC1COc1ccc(CCNC(=O)C=C(C)C)cc1)C(C)(C)OC(C)=O` (configuration not stated), for which the TGI in assay [1] is over 100 µM; in assay [2], over 100 µM; in assay [3], over 100 µM; in assay [4], over 100 µM; in [5] it was over 57.6 µM; in [6] it was over 100 µM. Besides, the TGI in assay [8] was 40.4 µM; in [9] it was over 100 µM; in assay [10], 47.9 µM; in assay [11], over 100 µM; in assay [12] it was over 100 µM; in assay [13] it was 27.3 µM.
Turning to `CN(C)CCCNc1ccc2ncn3c4ccc(O)cc4c(=O)c1c23`, the TGI in [1] turned out to be 27.4 µM; in assay [2], 13.6 µM; in assay [3], 12.9 µM; in [4] it was 14.4 µM; in assay [5], 16.4 µM; in [6], 15.3 µM. For the same compound, the TGI in assay [7] was 1.27 µM; in [8] it was 19.3 µM; in assay [9], 3.16 µM; in assay [10], over 100 µM; in [11] it was 11.7 µM; in assay [12], 19.8 µM. In [13], this compound returned a TGI of 24.5 µM.
Consider `C1=NC(N(Cc2ccccc2)Cc2ccccc2)N(Cc2ccccc2)N1` (configuration not stated), for which the TGI in [1] was 45.7 µM; in [3] it was 30.9 µM; in assay [4], 30.8 µM; in assay [5], 23.1 µM; in assay [6], 34.2 µM; in [9] it was 40.9 µM. For the same compound, the TGI in assay [11] came out at 54.5 µM; in assay [12], 86.4 µM; in [13], 33.5 µM.
